Results as given in US7384975B2, “Substituted furochromenes, preparation thereof and their antiinflammatory action” (GlaxoSmithKline Istrazivacki Centar Zagreb d.o.o., priority 2003, dated 2008).

System: Balb/C mice
Assay: Model of lung eosinophilia in mice (ovalbumin sensitization and provocation)
Assay type: in vivo
Conditions: i.n. 2 mg/kg daily from 2 days prior to the provocative test until the end, lavage 48 hours after ovalbumin provocation
Protocol: Model of Lung Eosinophilia in Mice
Male Balb/C mice (Charles River) of 20-25 g of body weight were randomly divided into groups. They were sensitized by i.p. application of ovalbumin (Sigma) on days zero and fourteen. On day twenty the mice were subjected to a provocative test by i.n. application of ovalbumin (positive control and test groups) or PBS (negative control). After 48 hours the animals were anesthetized and the lungs were rinsed with 1 mL of PBS. The cells were centrifuged on Cytospin 3 cytocentrifuge (Shandon). Then the cells were stained with Diff-Quick (Dade) and the percentage of eosinophils was determined by differential counting of at least 100 cells.
Beclomethazone was used as a standard substance in addition to positive and negative controls. The compound was applied daily i.n. in a dose of 2 mg/kg for 2 days prior to the provocative test and until the end of the investigation.
The compound 13 reduced the number of eosinophils in the lavage and histological preparations of lungs for 50% in relation to the positive control group.

O=c1oc2cc(O)cc(O)c2c(O)c1-c1cc2c(=O)oc3cc(O)cc(O)c3c2o1 [Compound 13, 7,9-Dihydroxy-2-(4,5,7-trihydroxy-2-oxo-2H-chromene-3-yl)-4H-furo[3,2-c]chromene-4-one]
reduction of the number of eosinophils in the lavage and histological preparations of lungs in relation to the positive control group: 50%
